Reference: PubChem BioAssay AID1996
Converted amounts (≈) assume the structure as drawn.

details: buffer; pH 7.4; 200.0 µM

Compound	solubility kinetic
Cc1cc(C)c(-c2nc3ccccc3s2)[nH]1	0.8 µg/mL (≈ 3.5 µM)
CC(=O)Nc1cccc(-c2csc(Nc3ncccn3)n2)c1	3.5 µg/mL (≈ 11.2 µM)
CCn1c(=O)c2ccccc2n(CC(=O)NC2CCCCC2)c1=O	15.4 µg/mL (≈ 46.8 µM)
O=[N+]([O-])c1ccc(NCCCN2CCOCC2)c2ncccc12	2.5 µg/mL (≈ 7.9 µM)
CN(C)C(CNC(=O)c1ccc(NC(=O)CC#N)cc1)c1ccccc1 (stereo not drawn)	> 52.6 µg/mL
CCS(=O)(=O)c1ccc(O)c(NC(=O)CCCC(=O)O)c1	41.5 µg/mL (≈ 132 µM)
CC(C)(C)OC(=O)C(C)(C)Sc1nnc(N)s1	> 41.3 µg/mL
NC(=O)c1ccc(NC(=O)COC(=O)C2CCN(S(=O)(=O)c3cccs3)CC2)cc1	25.1 µg/mL (≈ 55.6 µM)
CCN(CC)C(=O)CN1CCC(c2nc3cc(C)c(C)cc3[nH]2)CC1	> 51.4 µg/mL
CC1(C)CC(NC(=O)Nc2ccc([N+](=O)[O-])cc2)CC(C)(C)N1	> 48.1 µg/mL
CC(NC(=O)c1ccco1)c1nc(-c2ccccc2)no1 (stereo not drawn)	31.7 µg/mL (≈ 112 µM)
CC(C)CNC(=O)N[C@@H](CC(C)C)C(=O)O	> 34.5 µg/mL
CC(C)NCC(O)c1ccc(NS(C)(=O)=O)cc1.Cl (stereo not drawn)	> 46.3 µg/mL
c1cc(OCCCN2CCCCC2)ccc1CN1CCCCC1	44.7 µg/mL (≈ 141 µM)
O=C(Cc1cccc2ccccc12)Nc1ccc(N2CCOCC2)cc1	1.7 µg/mL (≈ 4.91 µM)
CCOC(=O)c1nc(Nc2ccccc2CC)c2ccccc2n1	> 48.2 µg/mL
CCCCN(C(=O)C1COc2ccccc2O1)c1c(N)n(CCC)c(=O)[nH]c1=O (stereo not drawn)	> 60.4 µg/mL
O=C1CS/C(=C/C(=O)c2cccc(Cl)c2)N1	10.5 µg/mL (≈ 41.4 µM)
C=C(C)CCOC(=O)C(CC(=O)O)NCc1ccco1 (stereo not drawn)	> 42.2 µg/mL
O=C(O)C(=O)O.O=S(=O)(c1cccc(C(F)(F)F)c1)N1CCN(CC(O)COCc2ccccc2)CC1 (stereo not drawn)	> 82.3 µg/mL
Cc1ccc(-c2csc3ncnc(SCC(=O)O)c23)cc1	> 47.5 µg/mL
Cc1ccc(N=Cc2c(O)c3ccccc3oc2=O)cc1F	< 0.6 µg/mL
Cc1cccc(C)c1NC(=O)CNC(=O)c1ccc2c(c1)NC(=O)CS2	41 µg/mL (≈ 111 µM)
CCOC(=O)C1=C(COC(=O)CCc2ccc(CC)cc2)NC(=O)NC1C (stereo not drawn)	40 µg/mL (≈ 107 µM)

Compound	solubility kinetic
O=S(=O)(NCCc1ccncc1)c1ccc(F)cc1	> 42 µg/mL
CCC(=NCc1ccco1)c1c(O)n(C)c(=O)n(C)c1=O	> 43.7 µg/mL
CCOC1(/N=C(\C)NS(=O)(=O)c2ccc(Cl)cc2)C(C)=CC(=O)C=C1C	> 59.5 µg/mL
CCOc1ccc(NC(=O)c2ccc3[nH]c(=O)c(=O)[nH]c3c2)cc1	4.8 µg/mL (≈ 14.8 µM)
CCOC(=O)Cc1csc(NC(=O)CCCC(=O)O)n1	> 45 µg/mL
Cl.NCCCCCC(=O)Nc1ccncc1	> 36.6 µg/mL
COC(=O)C1=C(C)N(Cc2ccccc2)C(=O)/C1=C\c1ccco1	3.7 µg/mL (≈ 11.4 µM)
CSc1nccc(-c2c(-c3ccc(Cl)cc3)noc2C)n1	4.6 µg/mL (≈ 14.5 µM)
COc1ccc(CN(C)CC(=O)Nc2cccc3ccccc23)cc1F	15.1 µg/mL (≈ 42.8 µM)
Cc1[nH]c2ccc(C(=O)Nc3ccncc3)cc2c1C	34.7 µg/mL (≈ 131 µM)
Cc1csc(SC(C)C(=O)Nc2ccccc2C)n1 (stereo not drawn)	> 43.9 µg/mL
Nc1nccc(-c2ccc(-n3cccc3)cc2)n1	< 0.1 µg/mL
Cc1c(C)c(C)c(S(=O)(=O)N2CCSCC2)c(C)c1C	1.5 µg/mL (≈ 4.78 µM)
CC(=O)c1ccc(N2C(=O)CC(N3CCN(S(=O)(=O)c4ccc(C)c(C)c4)CC3)C2=O)cc1 (stereo not drawn)	15 µg/mL (≈ 31.9 µM)
CC(O)C(NC=C1C(=O)OC(C)(C)OC1=O)C(=O)O (stereo not drawn)	39.4 µg/mL (≈ 144 µM)
CC(=O)C1=C(O)C(=O)N(c2ccc(O)cc2)C1c1cccc([N+](=O)[O-])c1 (stereo not drawn)	> 53.1 µg/mL
CCOC(=O)C1=C(C)NC(=O)CC1c1cc2c(cc1[N+](=O)[O-])OCO2 (stereo not drawn)	3.3 µg/mL (≈ 9.47 µM)
Cc1nc(N2CCN(C(=O)c3ccco3)CC2)[nH]c(=O)c1C	> 45.3 µg/mL
O=C(CSc1nc2ccccc2c(=O)n1-c1ccccc1)N1CCC1	> 52.7 µg/mL
COc1ccc2c(c1)c(C(C)=O)c(C)n2C	> 32.6 µg/mL
Cc1ccc(C(=O)NC(C)CCc2ccccc2)cc1S(=O)(=O)N1CCOCC1 (stereo not drawn)	5.6 µg/mL (≈ 13.4 µM)
CN(C)c1cc(Nc2cccc(O)c2)c([N+](=O)[O-])c2nonc12	0.4 µg/mL (≈ 1.27 µM)
CCOc1ccc(N2C(=O)CC(Sc3nc(O)c(CC)c(=O)[nH]3)C2=O)cc1 (stereo not drawn)	> 58.4 µg/mL
Cc1ccc(S(=O)(=O)NC(Cc2ccccc2)C(=O)O)cc1 (stereo not drawn)	> 47.9 µg/mL

Compound	solubility kinetic
Cc1ccc(C(=O)NCCC(=O)NCc2ccco2)cc1	> 42.9 µg/mL
COc1cc(OC)cc(C(=O)NC(C)CCc2ccccc2)c1 (stereo not drawn)	34.2 µg/mL (≈ 109 µM)
O=C(OCc1ccc(Cl)c(Cl)c1)c1cccnc1Cl	< 0.7 µg/mL
CC1CN(c2ccc([N+](=O)[O-])nc2)CC(C)O1 (stereo not drawn)	> 35.6 µg/mL
CC(=NCCCO)c1c(O)[nH]c(=O)[nH]c1=O	> 34.1 µg/mL
O=C(/C=C/c1ccc(-c2cccc([N+](=O)[O-])c2)o1)N1CCOCC1	3.9 µg/mL (≈ 11.9 µM)
Fc1ccc(-n2cc(-c3ccccc3)c3c(=S)nc[nH]c32)cc1	< 0.2 µg/mL
COc1cnc(-c2cccc(C(F)(F)F)c2)nc1OC	< 0.3 µg/mL
Cc1c(NC(=O)CN2CCCC(C)C2)ccc2nsnc12 (stereo not drawn)	42.6 µg/mL (≈ 140 µM)
O=S(=O)(c1cc(F)ccc1F)N1CCN2CCCC2C1 (stereo not drawn)	> 45.4 µg/mL
CC(C)(C)SCCNC(=O)CN1C(=O)c2cccc3cccc1c23	2.8 µg/mL (≈ 8.18 µM)
CC(=O)c1ccc(NC(=O)Nc2ccncc2)cc1	> 38.3 µg/mL
CN(C)S(=O)(=O)Nc1cccc(-c2cn3c(n2)SCC3)c1	> 48.7 µg/mL
CCCCOc1ccc(S(=O)(=O)N2CCCCC2)cc1	1.1 µg/mL (≈ 3.7 µM)
Nc1ccccc1C(=O)NCCN1CCNC1=O	14.2 µg/mL (≈ 57.2 µM)
COc1ccc(NC(=O)C2C3CCC(O3)C2C(=O)O)cc1OC (stereo not drawn)	> 48.2 µg/mL
COCCCNc1oc(/C=C/c2ccccc2)nc1C#N	3.7 µg/mL (≈ 13.1 µM)
CNC(=O)C(=O)Nc1c(O)c2ccccc2[nH]c1=O	> 39.2 µg/mL
Cc1cc(C)n(CC(=O)Nc2ccc3c(c2)OCO3)c(=O)c1C#N	8.4 µg/mL (≈ 25.8 µM)
CCc1c(-c2ccccc2)[n+](=O)c2c(n1[O-])CCC2	> 38.4 µg/mL
CCOc1cc(S(=O)(=O)NCc2cccnc2)c(C)cc1C	> 48.1 µg/mL
CCC(C)[C@H](NC(=O)NCCC1=CCCCC1)C(=O)OC (stereo partly drawn)	> 44.5 µg/mL
COc1ccc(C2(C)CC(C)(C)Nc3ccccc32)cc1 (stereo not drawn)	5.7 µg/mL (≈ 20.3 µM)
COc1ccc(NC(=O)COC(C)=O)cc1OC	> 38 µg/mL

Compound	solubility kinetic
Cc1cccc(NC(=O)Nc2ccccc2)n1	2.5 µg/mL (≈ 11 µM)
COc1ccc(-n2c(-c3ccc(Cl)cc3)c[nH]c2=S)cc1	1.5 µg/mL (≈ 4.73 µM)
COc1ccc(C(=O)NCCNC(=O)c2ccc(C)nc2)cc1	> 47 µg/mL
CN1CCC(N(C)C(=O)Cc2ccccc2[N+](=O)[O-])CC1	> 43.7 µg/mL
COc1cc(/C=C/C(=O)NCC2CCCCC2)cc(OC)c1OC	< 0.7 µg/mL
O=C(CNS(=O)(=O)c1ccc(F)cc1)Nc1ccccc1	44.1 µg/mL (≈ 143 µM)
Cc1ccc(C(=O)O/N=C(\N)c2ccc(C(F)(F)F)cn2)cc1	< 0.2 µg/mL
Cc1ccc(CNC(=O)CCCc2cn(C)c3ccccc23)cc1	0.4 µg/mL (≈ 1.25 µM)
Nc1nc(SCC(=O)Nc2ccc([N+](=O)[O-])cc2)n[nH]1	> 44.1 µg/mL
COCCCNC(=O)C1c2ccccc2Oc2ccccc21	15.2 µg/mL (≈ 51.1 µM)
COC(=O)C1CCN(c2cc(Cl)nc(N)n2)CC1	24.5 µg/mL (≈ 90.5 µM)
Cc1ccc(NC(=O)c2c([N+](=O)[O-])cnn2C)cc1C	> 41.1 µg/mL
O=C(COC(=O)Cc1ccccc1F)NC(=O)NC1CCCC1	42.5 µg/mL (≈ 132 µM)
Cc1ccc(N2CC(C(=O)Nc3ccc4c(c3)OCO4)CC2=O)cc1C (stereo not drawn)	1.8 µg/mL (≈ 5.11 µM)
COc1ccc(OC)c(NC(=O)COC(=O)CCNc2ccccc2OC)c1	40.8 µg/mL (≈ 105 µM)
COc1ccc(NC(=O)COC(=O)C2CCN(C(=O)c3ccc(Cl)cc3)CC2)c([N+](=O)[O-])c1	22.4 µg/mL (≈ 47.1 µM)
O=C(CSc1nnc(-c2ccncc2)o1)N1CCCC1	> 43.6 µg/mL
OCCN1CCOCCOc2ccccc2OCCOCC1	> 46.7 µg/mL
O=C(/C=C/c1cccc(F)c1)OCC(=O)N1CCCC1	> 41.6 µg/mL
CC1(C)CC(=O)c2cnc3nc4ccccc4n3c2C1	26.6 µg/mL (≈ 100 µM)
CCOC(=O)c1csc(NC(=O)c2cc(-c3ccccn3)nc3ccccc23)n1	1 µg/mL (≈ 2.47 µM)
O=C(O)CCCNc1ccc(S(=O)(=O)N2CCCCC2)cc1	> 49 µg/mL
COc1cc(C(=O)NCCC(=O)NC(C)C)cc(OC)c1OC	> 48.7 µg/mL
O=C1c2ccccc2C(=O)N1OS(=O)(=O)c1ccc(F)cc1	> 48.2 µg/mL

Compound	solubility kinetic
O=S(=O)(Cc1ccccc1)Nc1ccccc1Br	40.6 µg/mL (≈ 124 µM)
O=C(c1ccc2nccnc2c1)N1CCN(c2ccccc2)CC1	> 47.8 µg/mL
O=C1NC(Cc2ccccc2)C(=O)Nc2ccc(Br)cc21 (stereo not drawn)	15.7 µg/mL (≈ 45.5 µM)
COc1ccc(-n2c(=S)[nH]c3sc4c(c3c2=O)CCN(C)C4)cc1	> 53.9 µg/mL
Cc1ccc(NC(=O)c2sccc2C)nc1	34.8 µg/mL (≈ 150 µM)
O=C1NC(=O)N(c2ccc3c(c2)OCO3)C(=O)/C1=C\c1ccsc1	> 51.3 µg/mL
CN1CCN(c2ccc(C(F)(F)F)cc2NC(=O)c2ccco2)CC1	> 53 µg/mL
O=[N+]([O-])c1ccc2nc(Cl)nc(-c3ccccc3)c2c1	4.8 µg/mL (≈ 16.8 µM)
Cc1cc(NCCOCCO)n2c(nc3ccccc32)c1C#N	> 46.6 µg/mL
Fc1ccc(F)c(CNc2ncnc3cc(Cl)ccc23)c1	1.3 µg/mL (≈ 4.25 µM)
Fc1ccc2nc(Nc3ccccc3)sc2c1	0.5 µg/mL (≈ 2.05 µM)
COc1ccc(NC(=S)Nc2ccccn2)cc1	2.8 µg/mL (≈ 10.8 µM)
O=C(COc1ccccc1Cl)Nc1cccnc1	33.7 µg/mL (≈ 128 µM)
O=C(CSc1cc(Cl)ccc1Cl)NC1CC1	37.7 µg/mL (≈ 137 µM)
COc1ccc(NC(=O)CCC(=O)c2ccc(C(C)C)cc2)cc1	< 0.7 µg/mL
Br.COc1cccc(CNCC2CCCO2)c1 (stereo not drawn)	44.1 µg/mL
O=c1ncn(-c2cccc(Cl)c2)c2ccccc12	38 µg/mL (≈ 148 µM)
NC(=O)COC(=O)c1ccc(-c2ccc(O)cc2)cc1	1.1 µg/mL (≈ 4.05 µM)
CC1CCCCC12NC(=O)N(CC(=O)NCc1ccccc1)C2=O (stereo not drawn)	> 49.4 µg/mL
COc1ccc(OC)c(N/C=C/C(=O)c2ccc(OC)c(OC)c2)c1	< 0.7 µg/mL
O=C(NC1CCCCC1)c1cc(-c2ccc(F)cc2)on1	< 0.3 µg/mL
COc1ccc(Cc2nc3ccccc3[nH]2)cc1OC	> 40.2 µg/mL
